# Test results reported in US20240287062A1, “NAPHTHYRIDONE COMPOUNDS FOR INHIBITION OF RAF KINASES AND/OR BCR-ABL TYROSINE KINASES” (Enliven Inc., priority 2021, published 2024).
# Where a name gives a salt, the structure may show the parent alone. Read-outs that look alike come from different tables or passages of the source.
# How the values were obtained:
# Assay type in all cases: cell-based
# [1] = test system: A375 (BRAF V600E); experiment: Cell viability assay (CellTiter Glo)
# Description: (§1) Cell viability was measured in the following MAPK pathway mutant cancer cell lines: A375 (BRAF V600E), HepG2 (NRAS Q61L), SK-MEL-30 (NRAS Q61K), and OCI-AML-2 (MBNL1-CRAF fusion). Cell viability was also measured in K562 cells.
# (§2) A375, HepG2, SK-MEL-30 and OCI-AML-2 cells were grown in the appropriate growth medium as described in Table B2 below, and harvested at 50-80% confluence. Cells were counted and seeded at their appropriate density (see Table B1) in a 384-well plate (Corning 3570). A375, HepG2 and SK-MEL-30 were allowed to adhere overnight prior to treatment and the OCI-AML-2 were treated immediately for the indicated drug treatment times (Table 6).
# (§3) Table 6 provides the growth media, number of cells seeded per well and drug treatment times for the each cell line. K562 cells were grown as described in Example B1 above.
# (§4) Compounds were dissolved in DMSO and serially diluted. Serially-diluted compound or a DMSO only control (high control, “HC”) was added to the plated cells in each well. Compounds were tested at concentrations of about 10 μM to 0.51 nM, using three-fold dilutions. The final proportion of DMSO never exceeded 0.1%.
# (§5) Plates were placed in a 37° C., […] incubator for the indicated treatment times (Table B1). Plates were then removed from the incubator and equilibrated for 15 minutes at room temperature. 40 μl of CellTiter Glo reagent (Promega) was added to measure the relative level of metabolically active cells by quantifying intracellular ATP concentrations. Plates were incubated for 30 minutes at room temperature, and luminescence was measured. Percent viability was normalized to a vehicle control only using the following formula: 0 viability=100×(LumSample−LumLC)/(LumHC−LumLC). Graphical curves were fitted using a nonlinear regression model with a sigmoidal dose response.
# [2] = test system: phosphorylated ERK (pERK); experiment: Detection of phosphorylated ERK (pERK), AlphaLISA in A375 cells; details: four hours incubation, inhibition of ERK phosphorylation, read-out: PERK ELISA (IC50)
# Description: A375 cells were counted and seeded at 10,000 cells/well in 384 well plates (Corning 3764) and allowed to adhere overnight.
# Compounds were dissolved and serially diluted in DMSO. The compounds were then added, mixed, and incubated for four hours at 37° C., 5% CO2. Compounds were added using four-fold dilutions at final concentrations ranging from 10 μM to 0.01 nM. DMSO only and 10 uM staurosporine were added as high and low controls.
# Following the four-hour incubation with compounds, cell lysates were prepared and AlphaLISA assay measuring phosphorylated ERK was performed. Media was removed using the Apricot Designs pipettor. Lysis buffer was made from 1× AlphaLISA SureFire Assay Kit (AlphaLISA SureFire Ultra pERK 12 (Thr202/Tyr204) ALSU-PERK-A50K) lysis buffer with protease and phosphatase inhibitors. Cells were lysed by adding 10 uL to all the wells and mixed for 40 minutes on a plate shaker. 10 uL cell lysate was transferred to a new Optiplate (PerkinElmer 6007290) and incubated with 5 uL 1× acceptor mix for 2 hours in the dark. 5 uL of 1× donor mix was added to all wells and mixed by shaking followed by overnight incubation in the dark.
# pERK AlphaLISA signal was read on the Envision using standard AlphaLISA settings. Percent inhibition of ERK phosphorylation was calculated by % Inhibition=100×(LumHC−LumSample)/(LumHC−LumLC). The low and high controls (LC/HC) are generated from lysate from wells with cells treated with DMSO or […] Staurosporine (BioAustralis, cat #BIA-S1086), […]. IC50 values were calculated by fitting the Curve using XLfit (v5.3.1.3), equation 201: Y=Bottom+(Top−Bottom)/(1+10^((Log IC50−X)*HillSlope)).
# [3] = test system: HepG2 (NRAS Q61L); experiment: Cell viability assay (CellTiter Glo); details: HepG2, 750 cells per well, read-out: BRAF Cytotoxicity (IC50, nM) HEPG2
# Description: as §1, §2, §3, §4, §5
# [4] = test system: SK-MEL-30 (NRAS Q61K); experiment: Cell viability assay (CellTiter Glo); details: SK-MEL-30, 750 cells per well, read-out: BRAF Cytotoxicity (IC50, nM) SK-MEL-30
# Description: as §1, §2, §3, §4, §5
# [5] = test system: OCI-AML-2 (MBNL1-CRAF fusion); experiment: Cell viability assay (CellTiter Glo); details: OCI-AML-2, 1000 cells per well, read-out: BRAF Cytotoxicity (IC50, nM) OCI-AML-2
# Description: as §1, §2, §3, §4, §5
# [6] = Homo sapiens, A-375, 72 h, A375, 1000 cells seeded per well, read-out: BRAF Cytotoxicity (IC50, nM) A375 (1000 cells)
# [7] = A375, 1000 cells seeded per well, 72 hours, read-out: BRAF Cytotoxicity (IC50, nM) A375 (1000 cells)
# [8] = A375, 250 cells seeded per well, 72 hours, read-out: BRAF Cytotoxicity (IC50, nM) A375 (250 cells)
SMILES,"IC50 ([2]; Homo sapiens, A-375, 4 h) [nM]",IC50 [2] [nM],other results
"CC[C@@H](O)c1cc(C)c(-c2cc3cnc(NC(=O)[C@H]4C[C@H]4F)cc3n(C)c2=O)cn1 [Compound 109, (1R,2R)-2-fluoro-N-(3-(6-((R)-1-hydroxypropyl)-4-methylpyridin-3-yl)-1-methyl-2-oxo-1,2-dihydro-1,6-naphthyridin-7-yl)cyclopropane-1-carboxamide]",76.6,,"IC50 [1, 6]: 1630 nM"
"CCC(O)c1cc(C)c(-c2cc3cnc(NC(=O)C4CC4)cc3n(C)c2=O)c(C)c1 (stereo in doubt) [Compound 119, (R)—N-(3-(4-(1-hydroxypropyl)-2,6-dimethylphenyl)-1-methyl-2-oxo-1,2-dihydro-1,6-naphthyridin-7-yl)cyclopropanecarboxamide]",,313,
"CCCC(O)c1cc(C)c(-c2cc3cnc(NC(=O)C4CC4)cc3n(C)c2=O)cn1 (single isomer, unassigned) [Example S42, Enantiomer B, N-(3-(6-(1-hydroxybutyl)-4-methylpyridin-3-yl)-1-methyl-2-oxo-1,2-dihydro-1,6-naphthyridin-7-yl)cyclopropanecarboxamide]",,14.7,"IC50 [1, 7]: 141 nM"
"COCC(O)c1cc(C)c(-c2cc3cnc(NC(=O)C4CC4)cc3n(C)c2=O)cn1 (single isomer, unassigned) [Example S60, Enantiomer B, N-(3-{6-[1-hydroxy-2-methoxyethyl]-4-methylpyridin-3-yl}-1-methyl-2-oxo-1,6-naphthyridin-7-yl)cyclopropanecarboxamide]",,19,"IC50 [1, 8]: 1070 nM; IC50 ([3]; 120 hours): 225 nM; IC50 ([4]; 120 hours): 3260 nM"
"CCC(O)c1cc(C)c(-c2cc3cnc(NC(=O)[C@@H]4C[C@@H]4F)cc3n(C)c2=O)cn1 (single isomer, unassigned; isomer b) [Example S40, Isomer B]",,230,"IC50 [1, 7]: 940 nM"
"CCCC(O)c1cc(C)c(-c2cc3cnc(NC(=O)C4CC4)cc3n(C)c2=O)cn1 (single isomer, unassigned) [Example S42, Enantiomer A, N-(3-(6-(1-hydroxybutyl)-4-methylpyridin-3-yl)-1-methyl-2-oxo-1,2-dihydro-1,6-naphthyridin-7-yl)cyclopropanecarboxamide]",,55.1,"IC50 [1, 7]: 930 nM"
"CCCC(=O)c1cc(C)c(-c2cc3cnc(NC(=O)[C@H]4C[C@H]4F)cc3n(C)c2=O)cn1 [Compound 151, (1R,2R)—N-(3-(6-butyryl-4-methylpyridin-3-yl)-1-methyl-2-oxo-1,2-dihydro-1,6-naphthyridin-7-yl)-2-fluorocyclopropane-1-carboxamide]",10.4,,"IC50 ([3]; Homo sapiens, HepG2, 120 h): 37.3 nM; IC50 ([5]; Homo sapiens, OCI-AML2, 72 h): 448 nM; IC50 ([4]; Homo sapiens, SK-MEL-30, 120 h): 244 nM"
"CCC(O)c1cc(C)c(-c2cc3cnc(NC(=O)C4CC4)cc3n(C)c2=O)c(C)c1 (stereo in doubt) [Compound 121, (S)—N-(3-(4-(1-hydroxypropyl)-2,6-dimethylphenyl)-1-methyl-2-oxo-1,2-dihydro-1,6-naphthyridin-7-yl)cyclopropanecarboxamide]",,151,
"COCC(O)c1cc(C)c(-c2cc3cnc(NC(=O)C4CC4)cc3n(C)c2=O)cn1 (single isomer, unassigned) [Example S60, Enantiomer A, N-(3-{6-[1-hydroxy-2-methoxyethyl]-4-methylpyridin-3-yl}-1-methyl-2-oxo-1,6-naphthyridin-7-yl)cyclopropanecarboxamide]",,120,"IC50 [1, 8]: 5950 nM; IC50 ([3]; 120 hours): > 10000 nM; IC50 ([4]; 120 hours): > 10000 nM"
"CCC(O)c1cc(C)c(-c2cc3cnc(NC(=O)C4CC4)cc3n(C)c2=O)c(C)c1 (stereo in doubt) [Compound 118, (R)—N-(3-(4-(1-hydroxypropyl)-2,6-dimethylphenyl)-1-methyl-2-oxo-1,2-dihydro-1,6-naphthyridin-7-yl)cyclopropanecarboxamide]",,1250,
"Cc1cc([C@@H](O)C(C)(F)F)ncc1-c1cc2cnc(NC(=O)C3CC3)cc2n(C)c1=O (single isomer, unassigned) [Compound 117]",61.3,,
"CCC(O)c1cc(C)c(-c2cc3cnc(NC(C)=O)cc3n(C)c2=O)cn1 (single isomer, unassigned) [Example S59, Enantiomer B, N-(3-(6-(1-hydroxypropyl)-4-methylpyridin-3-yl)-1-methyl-2-oxo-1,2-dihydro-1,6-naphthyridin-7-yl)acetamide]",,373,
"CCCC(O)c1cc(C)c(-c2cc3cnc(NC(C)=O)cc3n(C)c2=O)cn1 (single isomer, unassigned) [Example S67, Enantiomer B, N-(3-{6-[1-hydroxybutyl]-4-methylpyridin-3-yl}-1-methyl-2-oxo-1,6-naphthyridin-7-yl)acetamide]",,23.9,
"CCC(O)c1cc(C)c(-c2cc3cnc(NC(=O)C4CC4)cc3n(C)c2=O)c(C)c1 (stereo in doubt) [Compound 120, (S)—N-(3-(4-(1-hydroxypropyl)-2,6-dimethylphenyl)-1-methyl-2-oxo-1,2-dihydro-1,6-naphthyridin-7-yl)cyclopropanecarboxamide]",,> 10000,
"CC[C@@H](O)c1cc(C)c(-c2cc3cnc(NC(=O)[C@@H]4CC4(F)F)cc3n(C)c2=O)cn1 (single isomer, unassigned) [Compound 123]",119,,
"CCC(O)c1cc(C)c(-c2cc3cnc(NC(=O)[C@H]4CC4(F)F)cc3n(C)c2=O)cn1 (single isomer, unassigned) [Example S49, Isomer A]",,73.8,IC50 ([3]; 120 hours): 2750 nM; IC50 ([5]; 72 hours): > 10000 nM; IC50 ([4]; 120 hours): > 10000 nM
"Cc1cc([C@H](O)C(C)(F)F)ncc1-c1cc2cnc(NC(=O)C3CC3)cc2n(C)c1=O (single isomer, unassigned) [Compound 116, formate]",78.1,,
"CC[C@H](O)c1cc(C)c(-c2cc3cnc(NC(=O)[C@@H]4CC4(F)F)cc3n(C)c2=O)cn1 (single isomer, unassigned) [Compound 124]",63.5,,
"CC[C@@H](O)c1cc(C)c(-c2cc3cnc(NC(=O)C4CC4)cc3n(C)c2=O)cn1 [Compound 68, (R)—N-(3-(6-(1-hydroxypropyl)-4-methylpyridin-3-yl)-1-methyl-2-oxo-1,2-dihydro-1,6-naphthyridin-7-yl)cyclopropanecarboxamide]",249,,"IC50 [1, 6]: 871 nM; IC50 ([5]; Homo sapiens, OCI-AML2, 72 h): 2510 nM"
"Cc1cc(-n2cccn2)ncc1-c1cc2cnc(NC(=O)C3CC3)cc2n(C)c1=O [Compound 122, N-{1-methyl-3-[4-methyl-6-(pyrazol-1-yl)pyridin-3-yl]-2-oxo-1,6-naphthyridin-7-yl}cyclopropanecarboxamide]",478,,
